# Test results as given in patent EP0741709B1, “AROMATIC 2-AMINO-IMIDAZOLE DERIVATIVES AS ALPHA-2A ADRENOCEPTOR AGONISTS” (Allergan Sales, Inc., priority 1994, dated 1995).
# Target: T1, human α2C (Homo sapiens, UniProt P18825)
# T1 construct: expressed in transfected cells; host or cells: CHO (CHO-C4)
# T1 sequence (P18825 1-462): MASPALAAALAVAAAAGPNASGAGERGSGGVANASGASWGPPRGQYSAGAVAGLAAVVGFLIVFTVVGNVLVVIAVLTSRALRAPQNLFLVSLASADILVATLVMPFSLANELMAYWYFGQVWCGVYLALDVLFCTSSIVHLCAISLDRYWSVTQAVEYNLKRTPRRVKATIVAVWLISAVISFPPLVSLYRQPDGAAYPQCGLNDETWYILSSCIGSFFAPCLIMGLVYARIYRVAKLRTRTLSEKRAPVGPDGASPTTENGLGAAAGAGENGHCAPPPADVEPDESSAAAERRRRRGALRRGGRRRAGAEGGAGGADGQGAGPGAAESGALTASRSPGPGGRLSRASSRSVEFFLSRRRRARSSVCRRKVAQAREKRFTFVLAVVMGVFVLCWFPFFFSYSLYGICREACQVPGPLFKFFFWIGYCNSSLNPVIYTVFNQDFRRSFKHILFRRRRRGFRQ
# Test: Receptor binding assay, [3H]rauwolscine, CHO-C4 cell membranes
# Conditions: 22°C, 30 minutes
# Procedure: Cell preparation: Chinese hamster ovary (CHO) cells expressing the human α2A and human α2C (CHO-C10 and CHO-C4 respectively) receptors and CHO cells (CHO-RNG) expressing the rat α2B adrenoceptor were grown to near confluence in Dulbecco's modified Eagle's medium supplemented with 10% fetal bovine serum using standard cell culture methods. Cells were harvested by scraping and placed into cold buffer of the following composition: 50 mM Tris-HCl, 5 mM EDTA, pH 7.4). Cells were then homogenized with a Polytron homogenizer for 2 X 10 sec at setting #7, and centrifuged for 20 minutes at 49,000 x g. The pellet fraction was washed (resuspended in Tris-HCl, pH 8 buffer and centrifuged for 15-20 minutes at 49,000 x g) 2 times and stored at -100°C until binding assay.
# Binding Studies: The radioligands [^3H]rauwolscine (specific activity 80 Ci/mmol) and [^3H]prazosin (specific activity 76 Ci/mmol) were obtained from New England Nuclear, Boston, MA. Frozen membrane pellet was resuspended in 25 mM glycine/glycine, pH 7.5 and incubated with radioligand under the following conditions: CHO-C10, CHO-RNG, CHO-C4-[^3H]rauwolscine, 22°C, 30 minutes; RKC-[^3H]rauwolscine, 0°C, 120 minutes; and, HCC-[^3H]prazosin, 22°C, 30 minutes in a final volume of 500 ul. At the end of the incubation period, the samples were filtered through glass filters (Whatman GF/B) in a 96 well cell harvester and rapidly washed four times with 4 mL of iced-cold 50 mM Tris-HCl buffer. The filters were then oven dried and transferred to scintillation vials containing 10 mL of Beckman's Ready Protein® scintillation cocktail for counting. Specific binding defined by 10 uM phentolamine for competition studies were as follows: 2.4 nM [^3H]brimonidine-RbICB 62%; 2.4 nM [^3H]rauwolscine-RbICB 75%; 2 nM [^3H]rauwolscine-RbKc 88%; 0.3 nM [^3H] rauwolscine-CHO-C10 99%; 0.4 nM [^3H]rauwolscine-CHO-RNG 99%, 0.3 nM [^3H]prazosin 87%; and 1 nM [^3H]rauwolscine-CHO-C4 90%. Protein concentrations were determined with a protein assay kit from Bio Rad. Binding isotherms, equilibrium dissociation and affinity constants were analyzed and determined by the non-linear least squares curve fitting programs EBDA (BioSoft) or AccuFit Competition/Saturation by Beckman.
# The radioligands [^3H)rauwolscine (specific activity 80 Ci/mmol) and [^3H]prazosin (specific activity 76 Ci/mmol) were obtained from New England Nuclear, Boston, MA. Frozen membrane pellet was resuspended in 25 mM glycine/glycine, pH 7.4 and incubated with radioligand under the following conditions: CHO-C10, CHO-RNG, CHO-C4-[^3H]rauwolscine, 22°C, 30 min.; and, HCC-[^3H]prazosin, 22°C, 30 minutes in a final volume of 500 ul. At the end of the incubation period, the samples were filtered through glass fiber filters (Whatman GF/B) in a 96 well cell harvester and rapidly washed four times with 4 mL of iced-cold 50 mM Tris-CHl buffer. The filters were then oven dried and transferred to scintillation vials containing 5 mL of Beckman's Ready Protein® scintillation cocktail for counting. Specific binding defined by 10 uM phentolamine for competition studies were as follows: 0.3 nM[^3H] rauwolscine-CHO-C10 99%; 0.4 nM [^3H]rauwolscine-CHO-RNG 99%, and 0.3 nM [^3H] prazosin-HCC 87%. Protein concentrations were determined with a protein assay kit from Bio Rad. Binding isotherms, equilibrium dissociation and affinity constants were analyzed and determined by the non-linear least squares curve fitting programs AccuFit Competition/Saturation by Beckman.
row,Ki [nM],Compound
1,577,Cc1ccccc1Nc1ncc[nH]1
2,2250,Clc1ccccc1Nc1ncc[nH]1
3,1120,Clc1cccc(Cl)c1Nc1ncc[nH]1
4,252,c1cc2c(c(Nc3ncc[nH]3)c1)CCCC2
5,3240,c1ccc(Nc2ncc[nH]2)cc1
6,19,Cc1c(Nc2ncc[nH]2)ccc2c1OCCO2
7,9670,Brc1c(Nc2ncc[nH]2)ccc2nccnc12
8,2390,Brc1ccccc1Nc1ncc[nH]1
9,512,COc1ccc(Nc2ncc[nH]2)c(C)c1

row,Compound,Ki [nM]
1,Cc1c(Nc2ncc[nH]2)ccc2c1NCCO2,229
